In ChEMBL document CHEMBL1143337, “Novel boronated chlorin e6-based photosensitizers: synthesis, binding to albumin and antitumour efficacy” (Bioorg Med Chem, 2009):

Assays:
[1] = Induction of necrosis in rat fibroblasts at 1 uM after 20 min post illumination to red light; type: cell-based; conditions: fibroblast
[2] = Antitumor activity against rat M1 cells implanted in rat assessed as increase in tumor volume coefficient followed by light illumination at 25 mg/kg, ip after 21 days relative to control; type: functional; conditions: route intraperitoneal
Albumin = Albumin (Homo sapiens, UniProt P02768); experiment: Binding affinity to human serum albumin; type: ADME; conditions: isolated protein
[3] = Antitumor activity against rat M1 cells implanted in rat assessed as increase in tumor volume coefficient followed by light illumination at 25 mg/kg, ip after 14 days relative to control; type: functional; conditions: route intraperitoneal

Sequence of Albumin (P02768 whole entry): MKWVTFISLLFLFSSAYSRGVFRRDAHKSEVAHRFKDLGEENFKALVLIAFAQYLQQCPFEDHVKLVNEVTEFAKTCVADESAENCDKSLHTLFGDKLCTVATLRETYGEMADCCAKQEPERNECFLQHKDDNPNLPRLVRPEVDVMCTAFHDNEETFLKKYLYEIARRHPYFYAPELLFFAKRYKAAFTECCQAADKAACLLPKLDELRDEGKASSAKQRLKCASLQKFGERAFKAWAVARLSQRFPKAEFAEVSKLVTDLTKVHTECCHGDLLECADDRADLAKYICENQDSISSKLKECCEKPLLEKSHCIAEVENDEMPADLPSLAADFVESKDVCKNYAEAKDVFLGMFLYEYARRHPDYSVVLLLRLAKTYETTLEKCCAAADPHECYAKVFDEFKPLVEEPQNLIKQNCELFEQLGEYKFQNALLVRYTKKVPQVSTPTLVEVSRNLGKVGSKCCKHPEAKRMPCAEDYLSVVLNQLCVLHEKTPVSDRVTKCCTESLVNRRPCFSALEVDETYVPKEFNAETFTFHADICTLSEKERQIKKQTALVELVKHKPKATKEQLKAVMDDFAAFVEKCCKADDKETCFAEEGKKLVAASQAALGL

Kb (Albumin): 2 ×10⁵ /M
SMILES: C=Cc1c(C)c2cc3nc(c(CC(=O)OC)c4[nH]c(cc5nc(cc1[nH]2)C(C)=C5CC)c(C)c4C(=O)NCCN)[C@@H](CCC(=O)OC)C3C (some centres undefined)
Activity [1]: Toxic | fold change (FC) [2]: 14.5 | fold change (FC) [3]: 6.6
